Structures are written as SMILES. Entries after “also recorded” stand apart in the source; their conditions may differ. Read-outs that look alike come from different tables or passages of the source.

On the set-up of series [1]: method as in PMID 23344203. The note with it: reference antioxidant; read-out: radical scavenging activity EC50; cited from earlier work.
Series [2] is described as follows: DPPH free radical scavenging (antioxidant) assay. The note with it: read-out: Antioxidant Activity EC50; DPPH method, mean of three independent experiments. (In general: The DPPH test is a chemical assay of radical scavenging.)
Description: The radical scavenging activity (antioxidant capacity) of the herein-developed RIV-IND hybrids was determined by the DPPH method [33]. Working solutions of the compounds in 10% DMSO/MeOH (, HoneywellSeelze, Germany) medium were used to prepare 5 methanolic solutions (5 points, 3 replicates) containing DPPH (Sigma-Aldrich, Steinheim, Germany) and different concentrations of compound up to 3.5 mL total volume. […] The respective antioxidant activity (%AA) was calculated using the following equation: %AA=ADPPH−Aligand/ADPPH×100
The reported results were obtained as the mean values of three independent experiments.
The new RIV-IND compounds were also screened for their radical scavenging activity (EC50), according to the 2,2-diphenyl-1-picrylhydrazyl (DPPH) free radical method.
Series [3] deals with T1, electric eel acetylcholinesterase (eeAChE) (Electrophorus electricus, UniProt O42275).
T1 construct: purchased Sigma-Aldrich (Steinheim, Germany)
The series is described as follows: AChE inhibition, adapted Ellman method. The class given is biochemical. Conditions: mean of two independent experiments ± SD, read-out: AChE Inhib IC50. As for the experimental part:
(§1) The enzyme inhibition of electric eel acetylcholinesterase (eeAChE) and equine butyrylcholinesterase (eqBChE) by our compounds was evaluated through an adaptation of Elmman´s method using reagents from Sigma-Aldrich (Steinheim, Germany). Stock solutions of each compound (1 mg) in MeOH (1 mL) were prepared and then working solutions for each ligand were obtained by the corresponding dilution of the stock solutions. A control measurement with 5 replicates (without ligand) and a calibration curve of 5 points with 3 replicates per point was performed. The preparation of each solution involved fixed volumes of 4-(2-hydroxyethyl)-1-piperazine-ethanesulfonic acid (HEPES) and cholinesterase (eeAChE or eqBChE) with different volumes of ligand solution, and it was left to rest for 15 min immediately after adding the cholinesterase. A blank solution containing HEPES and MeOH was also prepared at the same time. […] The slope for each calibration point (absorbance versus reaction time) was determined and the inhibition for each compound was calculated by using the following equation: %Inhibition=100−(vi/v0×100) where vi is the reaction rate (slope) for each point of the calibrate with ligand and v0 is the initial reaction rate (slope) for the control point (without ligand). […] Experiments were performed twice for each compound.

Series [4] has as its target T2, equine butyrylcholinesterase (eqBChE) (Equus caballus, UniProt P81908).
T2 construct: purchased Sigma-Aldrich (Steinheim, Germany)
Nature of the series: BChE inhibition, adapted Ellman method. The class given is biochemical. How it is done:
as §1
(In general: In Ellman's method for cholinesterases, released thiocholine reacts with DTNB.)

Series [5] has as its system SH-SY5Y cells. The series is described as follows: Cell viability dose-response screening, MTT. The class given is cell-based, human. Conditions: 24 h, screening 0.5 µM to 20 µM. How it is done: (§2) Cell viability, following treatment with the compounds, was determined using the colorimetric MTT (3-(4,5-dimethylthiazol-2-yl)-2,5-diphenyltetrazolium bromide) assay. The tested compounds (5a1-3, 5b1-3, 5c1-3) were dissolved in DMSO to produce stock solutions of 25 mM and stored at −20 °C. A concentration screening was performed for 0.5 µM to 20 µM final concentrations to choose the highest nontoxic concentration. SH-SY5Y human neuroblastoma cell line (ATCC-CRL-2266) was cultured in Dulbecco’s modified Eagle’s medium (DMEM) (Gibco-Invitrogen, Life Technologies Ltd., Waltham, MA, USA) with heat-inactivated fetal calf serum (10%), penicillin (50 U/mL) and streptomycin (50 µg/mL) at 37 °C with 5% CO2. Cells were plated at 0.15 × 10^6 cells/mL one day prior to the start of the experiment. The cells were then incubated with the appropriate concentration of the compounds for 24 h. After the incubation period, the cells were washed once with PBS and incubated with 200 µL MTT (0.5 mg/mL) for 2 h at 37 °C with 5% CO2. During this period, cellular dehydrogenase successfully metabolized MTT into formazan, which was then solubilized using 200 µL of 0.04 M HCl/isopropanol. Absorbance was measured at 570 nm.
The new RIV-IND hybrids were tested to determine their protective role in the toxicity induced by either Aβ1-42 peptides or iron/ascorbate. SH-SY5Y cells were incubated with a set of concentrations of each of the compounds and a dose–response curve was constructed to select the highest nontoxic concentration.
Figure 3 Dose–response screening of RIV-IND compounds 5a1-3, 5b1-3 and 5c1-3 measured by MTT reduction ability on SH-SY5Y cells treated with different concentrations of the compounds for 24 h. Results are expressed relatively to untreated cells, with the mean ± standard error of the mean (SEM) derived from three independent experiments. * p < 0.05; ** p < 0.01; *** p < 0.001 compared to untreated cells. (The dot line indicates 100% cellular viability).

Series [6] has as its system SH-SY5Y cells. The series is described as follows: Neuroprotection against iron/ascorbate-induced toxicity, MTT. Conditions: ferrous sulfate 5 mM and L-ascorbic acid 2.5 mM, 24 h, optimized concentration of each compound. The class given is cell-based, human. How it is done: as §2
To test whether the compounds have a protective effect against toxicity induced by Aβ1-42 or iron/ascorbate, the cells were pre-incubated for 1 h with each compound, followed by the addition of Aβ1-42 or iron/ascorbate and incubation for an additional 24 h. Aβ1-42 (Bachem, Torrance, CA, USA) was prepared in sterile water to produce a stock solution of 443 µM and added to the cells at a final concentration of 1 µM. […] All data are expressed as mean ± SEM of at least three independent experiments performed in duplicate. […]
Figure 5 Neuroprotective effect of RIV-IND compounds against cellular toxicity induced by iron/ascorbate (Fe/Asc) measured by MTT reduction ability on SH-SY5Y cells pretreated with iron/ascorbate for one hour, followed by a 24 h incubation with the optimized concentration of each compound. […]

Series [7] addresses T3, Aβ1-42 (Homo sapiens, UniProt P05067).
T3 construct: purchased Genecust, Boynes, France
The series is described as follows: Inhibition of Aβ1-42 self-aggregation, thioflavin T fluorescence. The class given is biochemical. The note with it: Cinhibitor = 20 µM, Aβ1-42 40 µM, 37 °C, 24 h, read-out: Aβ42 Self-Aggreg. Inhib. How it is done: The Aβ peptide (Genecust, Boynes, France) was treated with 1,1,1,3,3,3-hexafluoropropan-2-ol (HFIP, Aldrich, Steinheim, Germany) and dissolved in a CH3CN/Na2CO3 (300 µM)/NaOH (250 µM) ([…], v/v/v) mixture in order to have a stable stock solution of Aβ1-42 with concentration 500 µM.
Solutions of the assayed compounds (0.5 mg/mL) were firstly prepared in 60% (v/v) DMSO/MeOH medium and then diluted in phosphate buffer (0.215 M, pH 8.0) to a concentration of 120 µM. The Aβ1-42 aggregation inhibition assays were performed according to a reported method based on the fluorescence emission of thioflavin T (ThT, Aldrich Steinheim, Germany). Therefore, Aβ1-42 (40 µM) was incubated at 37 °C for 24 h in phosphate buffer and in the presence or absence of each ligand (20 µM). Then, the samples were added to a 96-well plate with 180 µL of 5 µM ThT in 50 mM glycine-NaOH (pH 8.5) buffer. Blank samples were identically prepared for each concentration but in the absence of the peptide. The ThT fluorescence was measured at 445 nm (excitation) and 485 nm (emission). The percent of aggregation inhibition was calculated by the following equation:I% = 100 − (IFi/IF0 × 100), in which IFi and IF0 are the fluorescence intensities, in the presence and the absence of the tested compound, subtracted from the fluorescence intensities due to the respective blanks. The reported values were obtained as the mean ± SEM of two different experiments performed in duplicate.
The inhibitory capacity of the RIV-IND hybrids towards Aβ42 self-aggregation was evaluated in vitro by molecular fluorescence spectroscopy through the thioflavin T (ThT) method. In fact, since there is an increase in the absorbance and emission of ThT when it binds to amyloid fibrils, it is possible to determine the percent of Aβ42 self-aggregation (see Table 1). The assays were performed in the presence of 20 µM of inhibitor to overcome the solubility limitations of some compounds in the phosphate buffer aqueous medium.

In series [8] the target is T3, Aβ1-42. Conditions: thioflavin T fluorescence method; cited from earlier work.

T2 sequence (P81908 whole entry): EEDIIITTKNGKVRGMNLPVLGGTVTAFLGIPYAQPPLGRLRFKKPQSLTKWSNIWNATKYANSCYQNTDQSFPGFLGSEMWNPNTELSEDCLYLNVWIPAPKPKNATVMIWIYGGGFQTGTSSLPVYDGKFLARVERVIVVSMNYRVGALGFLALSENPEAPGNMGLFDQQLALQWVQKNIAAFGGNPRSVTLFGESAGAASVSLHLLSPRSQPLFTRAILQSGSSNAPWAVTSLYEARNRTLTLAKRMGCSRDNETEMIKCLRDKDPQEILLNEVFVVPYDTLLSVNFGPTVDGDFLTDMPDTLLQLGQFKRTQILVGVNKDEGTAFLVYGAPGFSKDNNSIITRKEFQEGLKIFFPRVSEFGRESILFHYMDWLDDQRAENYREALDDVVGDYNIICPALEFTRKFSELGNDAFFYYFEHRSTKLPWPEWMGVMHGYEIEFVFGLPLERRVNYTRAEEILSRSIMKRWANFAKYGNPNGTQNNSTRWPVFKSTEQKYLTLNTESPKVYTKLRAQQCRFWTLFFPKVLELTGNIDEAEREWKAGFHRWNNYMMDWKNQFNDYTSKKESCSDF
T3 sequence (P05067 672-713 limits assumed): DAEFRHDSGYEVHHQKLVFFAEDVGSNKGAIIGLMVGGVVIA
T1 sequence (O42275 24-633): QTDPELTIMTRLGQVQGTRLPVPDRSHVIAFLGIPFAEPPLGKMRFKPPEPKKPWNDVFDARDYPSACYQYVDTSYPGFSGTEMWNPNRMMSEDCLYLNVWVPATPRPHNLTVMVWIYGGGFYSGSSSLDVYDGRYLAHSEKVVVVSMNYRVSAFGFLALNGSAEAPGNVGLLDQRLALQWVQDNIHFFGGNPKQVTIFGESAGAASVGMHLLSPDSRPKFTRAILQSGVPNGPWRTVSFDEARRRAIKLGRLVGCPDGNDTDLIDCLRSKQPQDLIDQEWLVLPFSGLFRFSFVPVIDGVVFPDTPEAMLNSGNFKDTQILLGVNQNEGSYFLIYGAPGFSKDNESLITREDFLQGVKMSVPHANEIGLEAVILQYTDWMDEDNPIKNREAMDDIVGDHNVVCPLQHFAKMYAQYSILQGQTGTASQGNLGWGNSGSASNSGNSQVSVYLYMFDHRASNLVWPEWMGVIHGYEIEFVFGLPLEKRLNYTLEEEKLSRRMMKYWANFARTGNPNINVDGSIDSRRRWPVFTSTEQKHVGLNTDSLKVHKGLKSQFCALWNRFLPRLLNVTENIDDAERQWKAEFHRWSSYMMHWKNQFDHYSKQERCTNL

As for `O=C1O[C@H]([C@@H](O)CO)C(O)=C1O` [vitamin C], the concentration giving a half-maximal response (EC50) (as a rule, the concentration that produces a half-maximal response) in series [1] is 15 µM.

Consider `CCN(C)C(=O)Oc1cccc(CNC(=O)c2cc3cccc(O)c3[nH]2)c1` [Compound 5b3, 3-((7-Hydroxy-1H-indole-2-carboxamido)methyl)phenyl-ethyl(methyl)carbamate], for which the concentration for a half-maximal effect (EC50) in series [2] is 20.2 ± 0.4 µM. Further, the half-maximal inhibitory concentration (IC50) – broadly, the concentration at which inhibition is half-maximal – in series [3] worked out at 80.7 ± 0.4 µM; in series [4] (eqBChE, mean of two independent experiments ± SD, read-out: BChE Inhib IC50), 5.7 ± 0.3 µM. In addition, in series [4] (IC50 (AChE)/IC50 (BChE)), the “SI (selectivity index)” value came to 14.2. This compound yielded a highest nontoxic concentration in the series on SH-SY5Y cells [5] of 10 µM. In the series on SH-SY5Y cells [6], the “neuroprotective effect against toxicity induced by iron/ascorbate” value is listed as “able to significantly increase cell viability after the trigger; also recorded: able to significantly protect cell viability after iron/ascorbate oxidative insult”. Moreover, the inhibition at 20 µM at Aβ1-42 [7] was 47.8%.

`COc1cc(/C=C/C(=O)CC(=O)/C=C/c2ccc(O)c(OC)c2)ccc1O` [Curcumin, curcumin]: on Aβ1-42 [8], the “Aβ42 Self-Aggreg. Inhib” value is reported as 65.7%.

Source of the values: publication PMC10892719 (Pharmaceutics, 2024).
